Literature values in patent publication US20170224835A1, “Antibody Drug Conjugates” (priority 2015, published 2017).
Where two headings read alike, the source gives them in different places.

What was measured:
[1] = in vitro

SMILES	cytotoxicity / cell killing compared with other anthracyclines [1]	cytotoxicity / cell killing compared with other anthracyclines ([1]; listed as PNU (159682))	efficacy in in vivo tumor models (in vivo tumor models)
COc1cccc2c1C(=O)c1c(O)c3c(c(O)c1C2=O)C[C@@](O)(C(=O)CO)C[C@@H]3O[C@H]1C[C@H](N2CCO[C@H](OC)C2)[C@H](O)[C@H](C)O1 [Nemorubicin, (8S,10S)-6,8,11-trihydroxy-10-((2R,4S,5S,6S)-5-hydroxy-4-((S)-2-methoxymorpholino)-6-methyltetrahydro-2H-pyran-2-yloxy)-8-(2-hydroxyacetyl)-1-methoxy-7,8,9,10-tetrahydrotetracene-5,12-dione]	more potent cell killing property	–	–
COc1cccc2c1C(=O)c1c(O)c3c(c(O)c1C2=O)C[C@@](O)(C(=O)CO)C[C@@H]3O[C@H]1C[C@H]2[C@H](O[C@@H]3[C@@H](OC)OCCN32)[C@H](C)O1 [PNU-159682, 3′-deamino-3″,4′-anhydro-[2″(S)-methoxy-3″(R)-oxy-4″-morpholinyl]doxorubicin]	significantly more cytotoxic than Nemorubicin	more cytotoxic than nemorubicin and doxorubicin	effective
